The results in this text go back to patent US12661352B2, “Combination therapy with CLK/DYRK inhibitors and BCL2 inhibitors to treat leukemia” (Memorial Sloan-Kettering Cancer Center, priority 2023, dated 2026).

One assay concerns MOLM-13 parental cells. The assay is described as follows: Drug treatment IC50 / cell viability (CellTiter Glo) and synergy, MOLM-13 parental cells. In kind it is cell-based. The note with it: Homo sapiens. How it is done:
(§1) Cell lines were plated in 96 well plates and exposed to the indicated compounds at various concentration ranges with a minimum of three technical replicates per concentration per cell line. Cell viability was measured with the CellTiter Glo reagent (Promega) as per manufacturer's instructions. Absolute viability values were converted to percentage viability versus DMSO control treatment, and then non-linear fit of log (inhibitor) versus response (three parameters) was performed in GraphPad Prism v7.0 to obtain an IC50 values. Two-dimensional heatmaps of Synergy Scores from Bliss synergy models were generated based on Demidenko et al., 2019^83.
(ATP-based viability assays read luminescence as a measure of living cells.)

For assay [1], the system named is venetoclax-resistant MOLM-13 cell lines. In words: Drug treatment IC50 / cell viability (CellTiter Glo) and synergy, venetoclax-resistant MOLM-13 cell lines. It counts as cell-based. The following applies: Homo sapiens, cell lines developed by continuous exposure to venetoclax for 3 weeks. How it is done: as §1
The efficacy of SM09419 across a spectrum of human AML cell lines was tested. […] Three independent venetoclax-resistant MOLM-13 cell lines following continuous exposure to venetoclax for 3 weeks were developed. […] These findings were further extended to patient-derived xenograft (PDX) models of AML from patients with de novo resistance to venetoclax combination regimens (5-azacytidine or low-dose cytarabine) (FIGS. 6C-6D). Following xenotransplantation from two individual venetoclax-resistant patients into NSGS mice, disease engraftment with >10% human hCD45^+ hCD34^+ hCD38^+ cells was detected and mice were exposed to SM09419 (25 mg/kg) or vehicle administered orally and daily for 3 weeks.

Structures are written as SMILES.

One may read the IC50 as the midpoint of a concentration-inhibition curve. Turning to `CC1(C)CCC(CN2CCN(c3ccc(C(=O)NS(=O)(=O)c4ccc(NCC5CCOCC5)c([N+](=O)[O-])c4)c(Oc4cnc5[nH]ccc5c4)c3)CC2)=C(c2ccc(Cl)cc2)C1` [venetoclax], the IC50 in the assay with MOLM-13 parental cells was ~0.015 µM; in assay [1], > 0.099 µM.
